#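 96-well plates; 48 h exposure; 5 concentrations. Endpoints by linear interpolation between flanking doses. Not reached: highest tested concentration assigned. Here, GI50 denotes the concentration required for 50% inhibition of growth. TGI: total growth inhibition.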
# Assays:
# Assay in all cases: growth of human tumour cells (NCI), 48 h
# [1] = tested on: RXF 393 renal
# [2] = tested on: A498 renal
# [3] = tested on: NCI/ADR-RES ovarian
# [4] = tested on: NCI-H522 lung
# [5] = tested on: HT29 colon
# [6] = tested on: SW-620 colon
# [7] = tested on: EKVX NSCLC
# [8] = tested on: SK-OV-3 ovarian
# [9] = tested on: SK-MEL-5 melanoma
# [10] = tested on: MDA-MB-231 breast
Structure (SMILES),TGI [1],TGI [2],TGI [3],TGI [4],TGI [5],TGI [6],TGI [7],TGI [8],TGI [9],TGI [10],GI50 [1],GI50 [2],GI50 [3],GI50 [4],GI50 [5],GI50 [6],GI50 [7],GI50 [8],GI50 [9],GI50 [10]
CC[N+](CC)(CC)/C(=N/S(=O)(=O)c1cc(C)c(Cl)cc1S)[N-]S(=O)(=O)c1ccc(Cl)cc1,> 100 µM,> 100 µM,> 100 µM,> 100 µM,> 100 µM,> 100 µM,> 100 µM,> 100 µM,> 100 µM,> 100 µM,,,,,,,,,,
C=CCC1=CC2(OC)C(=O)C(OC)(OC)C1C1C(OC)(OC)C(=O)C(OC)=CC12CC=C (stereo not drawn),> 100 µM,> 100 µM,> 100 µM,> 100 µM,> 100 µM,> 100 µM,> 100 µM,> 100 µM,> 100 µM,> 100 µM,,,,,,,,,,
CCOC(=O)c1c(N2CCOCC2)[nH]c(=O)c(C(c2ccc(Cl)c([N+](=O)[O-])c2)c2c(O)c(C(=O)OCC)c(N3CCOCC3)[nH]c2=O)c1O,> 100 µM,> 100 µM,> 100 µM,55.2 µM,42.1 µM,58.7 µM,> 100 µM,> 100 µM,74.5 µM,41.9 µM,,,,,,,,,,
NC(N)=N/N=C/c1ccc(O)c(C(=O)O)c1,> 100 µM,> 100 µM,> 100 µM,> 100 µM,> 100 µM,> 100 µM,,> 100 µM,> 100 µM,> 100 µM,,,,,,,,,,
CCOc1ccc2c(c1)NC(=O)C(C1OC(c3ccccc3)=CC1=O)S2 (stereo not drawn),42.8 µM,> 100 µM,67.1 µM,25.7 µM,39.6 µM,88.8 µM,62.3 µM,52.8 µM,39.2 µM,60.5 µM,,,,,,,,,,
CCCc1ccc(OCC(=O)N/N=C/c2c(-c3ccccc3)[nH]c3ccccc23)cc1,28.8 µM,31.8 µM,42.5 µM,82 µM,29.8 µM,> 100 µM,92.8 µM,> 100 µM,20.8 µM,28.9 µM,,,,,,,,,,
O=C(CCO)OCCCCCC/C=C\CCCCCC/C=C\CCCCCCCCOC(=O)CCO,35 µM,50 µM,32.7 µM,30.1 µM,31.5 µM,80.4 µM,32.3 µM,37.5 µM,> 100 µM,32.5 µM,,,,,,,,,,
C[C@]12CC[C@H](O)CC1=CC[C@@H]1[C@@H]2CC[C@]2(C)C(=O)CC[C@@H]12,> 100 µM,,> 100 µM,> 100 µM,> 100 µM,> 100 µM,> 100 µM,> 100 µM,> 100 µM,,,,,,,,,,,
Cc1cc(=O)[nH]c2c3c(ccc12)OC(C)(C)C=C3,> 31.4 µM,> 87.7 µM,> 100 µM,67.4 µM,> 56.4 µM,> 100 µM,> 63.7 µM,> 82.9 µM,> 100 µM,> 100 µM,,,,,,,,,,
CC(C)(C)c1cc(C(C)(C)C)c2sc(=S)oc2c1O,14.5 µM,26 µM,24.4 µM,20.5 µM,30.1 µM,> 46.7 µM,11.6 µM,32.8 µM,21.8 µM,26.7 µM,,,,,,,,,,
FC(F)(F)C1=NC(=NNc2nnc(-c3ccccc3)c(-c3ccccc3)n2)N=C(C(F)(F)F)C1,> 100 µM,> 100 µM,> 100 µM,53.6 µM,> 100 µM,> 100 µM,> 100 µM,> 100 µM,> 66 µM,,,,,,,,,,,
O=c1cc(-c2nc3ccccc3[nH]2)[nH]c2nc(-c3nc4ccccc4[nH]3)cc(-c3ccc(Cl)cc3)c12,35.8 µM,,91.3 µM,26.1 µM,42.5 µM,54.1 µM,> 100 µM,46.1 µM,30.9 µM,35.7 µM,,,,,,,,,,
COc1ccc(-n2cc(-c3ccc(OC)c(OC)c3)nc2SCc2ccccc2)cc1Cl,82 µM,> 100 µM,> 100 µM,98.4 µM,> 100 µM,> 100 µM,64.7 µM,> 100 µM,18.6 µM,> 100 µM,16.9 µM,22.3 µM,42.7 µM,13.2 µM,17 µM,29.9 µM,13.8 µM,66.6 µM,5.78 µM,26.9 µM
Cc1onc(-c2c(F)cccc2Cl)c1C(=O)N[C@@H]1C(=O)N2[C@@H]1SC(C)(C)[C@@H]2C(=O)O,> 100 µM,> 100 µM,> 100 µM,> 100 µM,> 100 µM,> 100 µM,> 100 µM,> 100 µM,> 100 µM,> 100 µM,,,,,,,,,,
O=C(Nc1ccc(F)cc1)c1cc2ccc(O)cc2oc1=Nc1ccccc1F,,> 100 µM,51.8 µM,84 µM,> 100 µM,> 100 µM,40.8 µM,67.1 µM,35.2 µM,,,,,,,,,,,

# Reference: PubChem BioAssay (NCI)
